A short description of series [1]: Half-life […] at pH 3.0. It is filed as ADME, cell-free.
Series [2] deals with L1210. Nature of the series: Compound was tested for its anti tumor activity against L1210 cells. The class given is functional, cell-based. The conditions noted are these: Mus musculus.
In series [3] the test system is L1210. Nature of the series: The compound was tested for its anti tumor activity against L1210 cells. It is filed as functional, cell-based. The conditions noted are these: Mus musculus.

Molecules are shown by their SMILES.

For `COC(=O)[C@]1(C)N=C2C(=O)C=C3N(C(=O)OC(C)(C)C)C[C@H]4C[C@@]34C2=C1O`, in series [1], the half-life (usually the time in which the quantity being followed falls by half) was 660 min. Also, half-maximal inhibition in the series on L1210 [2] (IC50) required 2000 nM.
The compound `Cc1c[nH]c2c1[C@@]13C[C@@H]1CN(C(=O)OC(C)(C)C)C3=CC2=O` had a half-life in series [1] of 2220 min. The 50% inhibitory concentration (IC50) (usually the concentration needed to halve the response being measured) with L1210 [3] stood at 330 nM.
Turning to `COC(=O)c1cc2c([nH]1)C(=O)C=C1N(C(=O)OC(C)(C)C)C[C@H]3C[C@]123`, the half-life in series [1] is 10600 min. In the series with L1210 [2], this compound displayed an IC50 of 6 nM.

The values above are taken from ChEMBL document CHEMBL1129759, “A comparative study of the solvolysis reactivity, regioselectivity, and stereochemistry of the duocarmycin a and sa alkylation subunits” (Bioorg Med Chem Lett, 1996).
